Experimental data published in patent US10376555B2, “Identification of cyclic peptide agonists of galanin receptor 2 and 3 guided by spexin solution structure” (Hong Kong Baptist University, priority 2017, dated 2019).
Positions of bridges follow the written chain, without caps; N, C: chain ends. Residues, ends and D or L forms follow the SMILES beside them. No end group written: not given here.

Assays:
hGalR1 = target: T1, hGalR1 (Homo sapiens, UniProt P47211); experiment: SRE-Luc receptor activation assay, hGalR1; assay type: cell-based; settings: for hGalR1 Emax: Relative to hGAL Emax; for activity on GalR1, in words: full-dose SRE-Luc
T1 sequence (P47211 1-349): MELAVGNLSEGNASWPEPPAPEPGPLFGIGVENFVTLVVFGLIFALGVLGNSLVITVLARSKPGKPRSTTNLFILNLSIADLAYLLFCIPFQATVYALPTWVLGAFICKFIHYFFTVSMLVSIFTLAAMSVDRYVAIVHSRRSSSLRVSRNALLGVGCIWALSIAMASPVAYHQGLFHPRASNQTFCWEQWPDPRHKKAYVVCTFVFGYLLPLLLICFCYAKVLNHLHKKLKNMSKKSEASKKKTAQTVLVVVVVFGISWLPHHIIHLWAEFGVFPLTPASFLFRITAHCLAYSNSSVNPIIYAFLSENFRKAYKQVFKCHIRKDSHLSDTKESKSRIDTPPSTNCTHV

hGalR2 = target: T2, hGalR2 (Homo sapiens, UniProt O43603); experiment: SRE-Luc receptor activation assay, hGalR2; assay type: cell-based; settings: for hGalR2 Emax: Relative to hSPX Emax; for activity on GalR2, in words: full-dose SRE-Luc; for effect of cysteine mutation on receptor activation of GalR2: single dose (1 μM, 6 hours), compared with wild type hSPX
T2 construct: host or cells: HEK293
T2 sequence (O43603 1-387): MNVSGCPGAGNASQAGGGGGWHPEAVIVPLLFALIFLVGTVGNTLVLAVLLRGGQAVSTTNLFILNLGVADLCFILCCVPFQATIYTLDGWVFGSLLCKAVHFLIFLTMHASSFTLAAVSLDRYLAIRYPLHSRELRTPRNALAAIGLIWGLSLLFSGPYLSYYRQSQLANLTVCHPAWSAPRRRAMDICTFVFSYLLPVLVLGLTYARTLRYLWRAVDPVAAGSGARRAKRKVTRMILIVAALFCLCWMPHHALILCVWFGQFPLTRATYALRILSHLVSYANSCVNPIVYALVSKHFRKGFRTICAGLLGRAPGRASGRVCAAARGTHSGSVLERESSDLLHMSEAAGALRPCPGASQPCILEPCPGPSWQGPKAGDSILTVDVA

hGalR3 = target: T3, hGalR3 (Homo sapiens, UniProt O60755); experiment: SRE-Luc receptor activation assay, hGalR3; assay type: cell-based; settings: for hGalR3 Emax: Relative to hSPX Emax; for activity on GalR3, in words: full-dose SRE-Luc; for effect of cysteine mutation on receptor activation of GalR3: single dose (1 μM, 6 hours), compared with wild type hSPX
T3 construct: host or cells: HEK293
T3 sequence (O60755 1-368): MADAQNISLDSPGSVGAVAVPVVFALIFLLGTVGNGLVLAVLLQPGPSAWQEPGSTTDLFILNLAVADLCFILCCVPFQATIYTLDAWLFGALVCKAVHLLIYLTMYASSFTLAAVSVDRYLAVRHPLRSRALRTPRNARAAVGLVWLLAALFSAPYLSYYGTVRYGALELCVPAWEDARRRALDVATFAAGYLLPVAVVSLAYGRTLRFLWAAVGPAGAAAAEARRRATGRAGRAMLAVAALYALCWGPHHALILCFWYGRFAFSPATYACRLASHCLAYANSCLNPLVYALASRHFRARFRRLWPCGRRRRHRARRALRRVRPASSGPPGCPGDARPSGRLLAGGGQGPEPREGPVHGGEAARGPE

[1] = In vitro serum stability assay (RP-HPLC); assay type: in vitro ADME, rat; settings: rat serum in RPMI 1640, 37° C., 100 μg/mL; read-out: serum half-life (t1/2)
Description: The serum stability of CSAs was tested using an in vitro assay followed by reverse-phase high-performance liquid chromatography (RP-HPLC) analysis (FIGS. 33-38).
750 μL RPMI medium 1640 (Thermo Fisher Scientific) was mixed with […] rat serum, and incubated at 37° C. for 15 min before adding peptide. The peptide dissolved in water was added into the reaction buffer to make a final concentration of 100 μg/mL. At each time point (5, 15, 30, 60, 120, 240, and 480 min), 100 μL reaction solution were taken, and mixed with 200 μL 6% trichloroacetic acid (TCA, Sigma-Aldrich). The resulting cloudy solution was cooled at 4° C. for 15 min, and centrifuged for 10 mins at 13,000 rpm. The supernatant was then analyzed by RP-HPLC. The extent of intact peptide was calculated based on the peak area and was normalized using a control sample.

[2] = HEK293 cells transfected with hGalR1, Gqi, SRE-Luc, 6 h treatment, full-dose

| Compound | activity on GalR2, in words (hGalR2) | activity on GalR3, in words (hGalR3) | hGalR1 EC50 (hGalR1; [2]) | effect of cysteine mutation on receptor activation of GalR2 (hGalR2) | effect of cysteine mutation on receptor activation of GalR3 (hGalR3) | EC50 (hGalR1; [2]) | hGalR1 Emax (hGalR1) | activity on GalR1, in words (hGalR1) | EC50 (hGalR2) | hGalR2 Emax (hGalR2) | EC50 (hGalR3) | hGalR3 Emax (hGalR3) | half-life at 100 μg/mL [1] | hGalR3 EC50 (hGalR3; HEK293 cells transfected with hGalR3, Gqi, SRE-Luc, 6 h treatment, full-dose) |
| --- | --- | --- | --- | --- | --- | --- | --- | --- | --- | --- | --- | --- | --- | --- |
| CC(C)C[C@@H]1NC(=O)[C@H](CC(C)C)NC(=O)[C@H](Cc2ccc(O)cc2)NC(=O)CNC(=O)[C@H](C)NC(=O)[C@H](CO)NC(=O)[C@H](CC(N)=O)NC(=O)[C@H](CC(C)C)NC(=O)[C@H]([C@@H](C)O)NC(=O)[C@H](Cc2c[nH]c3ccccc23)NC(=O)[C@@H](N)CSSC[C@@H](C(=O)N[C@@H](Cc2c[nH]cn2)C(=O)N[C@@H](C)C(=O)N[C@H](C(N)=O)C(C)C)NC(=O)CNC1=O [LH201] (H-CWTLNSAGYLLGCHAV-NH2; disulfide 1-13) | kept full activity on GalR2 | only able to activate GalR3 at high doses |  |  |  | > 10 µM | 0.35 | lost all activity on GalR1 | 120 nM | 1.00 | > 10 µM | 0.55 | 169 min |  |
| CC(C)C[C@H](NC(=O)CNC(=O)[C@H](CC(N)=O)NC(=O)[C@H](CCCCN)NC(=O)[C@H](CC(=O)O)NC(=O)[C@H](CO)NC(=O)[C@H](Cc1ccccc1)NC(=O)[C@H](CO)NC(=O)[C@H](CCCNC(=N)N)NC(=O)[C@H](Cc1c[nH]cn1)NC(=O)[C@H](CC(N)=O)NC(=O)CNC(=O)[C@@H](NC(=O)[C@H](C)NC(=O)[C@H](Cc1c[nH]cn1)NC(=O)[C@@H]1CCCN1C(=O)CNC(=O)[C@H](CC(C)C)NC(=O)[C@H](CC(C)C)NC(=O)[C@H](Cc1ccc(O)cc1)NC(=O)CNC(=O)[C@H](C)NC(=O)[C@H](CO)NC(=O)[C@H](CC(N)=O)NC(=O)[C@H](CC(C)C)NC(=O)[C@@H](NC(=O)[C@H](Cc1c[nH]c2ccccc12)NC(=O)CN)[C@@H](C)O)C(C)C)C(=O)N[C@H](C(=O)N[C@@H](CO)C(N)=O)[C@@H](C)O [hGAL, reference compound] |  |  |  |  |  |  |  |  |  | 0.94 |  | 0.68 |  |  |
| CC(=O)N[C@H]1CSSC[C@@H](C(=O)N[C@@H](Cc2c[nH]cn2)C(=O)N[C@@H](C)C(=O)N[C@H](C(N)=O)C(C)C)NC(=O)CNC(=O)[C@H](CC(C)C)NC(=O)[C@H](CC(C)C)NC(=O)[C@H](Cc2ccc(O)cc2)NC(=O)CNC(=O)[C@H](C)NC(=O)[C@H](CO)NC(=O)[C@H](CC(N)=O)NC(=O)[C@H](CC(C)C)NC(=O)[C@H]([C@@H](C)O)NC(=O)[C@H](Cc2c[nH]c3ccccc23)NC1=O [LH201 (Ac)] (Ac-CWTLNSAGYLLGCHAV-NH2; disulfide 1-13) |  | No activity | N.M. |  |  |  | 0.22 | No activity | 480 nM | 1.16 |  | 0.20 | 51.9 min | N.M. |
| CSCC[C@@H]1NC(=O)[C@H](C)NC(=O)[C@H](CCC(N)=O)NC(=O)[C@@H](NC(=O)[C@@H](NC(=O)[C@H](Cc2c[nH]c3ccccc23)NC(=O)[C@@H](N)CC(N)=O)[C@@H](C)O)CSSC[C@@H](C(=O)N[C@@H](CCC(N)=O)C(N)=O)NC(=O)CNC(=O)[C@H](CCCCN)NC(=O)[C@H](CC(C)C)NC(=O)[C@H](Cc2ccc(O)cc2)NC(=O)[C@H](CC(C)C)NC1=O [LH102] (H-NWTCQAMLYLKGCQ-NH2; disulfide 4-13; N-terminus assumed) |  |  | N.M. |  |  |  | N.M. |  |  | 1.08 |  |  |  |  |
| CC(C)C[C@H](NC(=O)[C@H](CC(C)C)NC(=O)[C@H](Cc1ccc(O)cc1)NC(=O)CNC(=O)[C@H](C)NC(=O)[C@H](CO)NC(=O)[C@H](CC(N)=O)NC(=O)[C@H](CC(C)C)NC(=O)[C@@H](NC(=O)[C@H](Cc1c[nH]c2ccccc12)NC(=O)CN)[C@@H](C)O)C(=O)NCC(=O)N1CCC[C@H]1C(=O)N[C@@H](Cc1c[nH]cn1)C(=O)N[C@@H](C)C(=O)N[C@H](C(N)=O)C(C)C [hGAL (1-16), reference compound] |  |  |  |  |  |  |  |  |  | 1.02 | > 10 µM | 0.45 | 14.1 min |  |

Further lines, with some results ahead:

| activity on GalR2, in words (hGalR2) | activity on GalR3, in words (hGalR3) | hGalR1 EC50 (hGalR1; [2]) | effect of cysteine mutation on receptor activation of GalR2 (hGalR2) | effect of cysteine mutation on receptor activation of GalR3 (hGalR3) | Compound | EC50 (hGalR1; [2]) | hGalR1 Emax (hGalR1) | activity on GalR1, in words (hGalR1) | EC50 (hGalR2) | hGalR2 Emax (hGalR2) | EC50 (hGalR3) | hGalR3 Emax (hGalR3) | half-life at 100 μg/mL [1] | hGalR3 EC50 (hGalR3; HEK293 cells transfected with hGalR3, Gqi, SRE-Luc, 6 h treatment, full-dose) |
| --- | --- | --- | --- | --- | --- | --- | --- | --- | --- | --- | --- | --- | --- | --- |
| little effect on the potency | little effect on the potency | N.M. | minimum effects | minimum effects | CSCC[C@H](NC(=O)[C@H](C)NC(=O)[C@H](CCC(N)=O)NC(=O)[C@@H]1CCCN1C(=O)[C@@H](NC(=O)[C@H](Cc1c[nH]c2ccccc12)NC(=O)[C@@H](N)CC(N)=O)[C@@H](C)O)C(=O)N[C@@H](CC(C)C)C(=O)N[C@@H](Cc1ccc(O)cc1)C(=O)N[C@@H](CC(C)C)C(=O)N[C@@H](CCCCN)C(=O)NCC(=O)N[C@@H](CS)C(=O)N[C@@H](CCC(N)=O)C(N)=O [hSPX (C13)] (H-NWTPQAMLYLKGCQ-NH2; N-terminus assumed) |  | N.M. |  |  | 0.87 |  | 0.88 |  |  |
|  |  |  | severely impaired bioactivity | severely impaired bioactivity | C14: hSPX mutant with single mutation to cysteine at position 14 (NWTPQAMLYLKGAC-NH2) |  |  |  |  |  |  |  |  |  |
| little effect on the potency | little effect on the potency | N.M. | minimum effects | minimum effects | CSCC[C@H](NC(=O)[C@H](C)NC(=O)[C@H](CCC(N)=O)NC(=O)[C@@H]1CCCN1C(=O)[C@@H](NC(=O)[C@H](Cc1c[nH]c2ccccc12)NC(=O)[C@@H](N)CS)[C@@H](C)O)C(=O)N[C@@H](CC(C)C)C(=O)N[C@@H](Cc1ccc(O)cc1)C(=O)N[C@@H](CC(C)C)C(=O)N[C@@H](CCCCN)C(=O)NCC(=O)N[C@@H](C)C(=O)N[C@@H](CCC(N)=O)C(N)=O [hSPX (C1)] (H-CWTPQAMLYLKGAQ-NH2; N-terminus assumed) |  | N.M. |  |  | 1.05 |  | 1.00 |  |  |
|  |  |  | severely impaired bioactivity | severely impaired bioactivity | C12: hSPX mutant with single mutation to cysteine at position 12 (NWTPQAMLYLKCAQ-NH2) |  |  |  |  |  |  |  |  |  |
|  |  |  | severely impaired bioactivity | severely impaired bioactivity | C10: hSPX mutant with single mutation to cysteine at position 10 (NWTPQAMLYCKGAQ-NH2) |  |  |  |  |  |  |  |  |  |
| little effect on the potency | little effect on the potency | N.M. | minimum effects | minimum effects | CSCC[C@H](NC(=O)[C@H](C)NC(=O)[C@H](CCC(N)=O)NC(=O)[C@H](CS)NC(=O)[C@@H](NC(=O)[C@H](Cc1c[nH]c2ccccc12)NC(=O)[C@@H](N)CC(N)=O)[C@@H](C)O)C(=O)N[C@@H](CC(C)C)C(=O)N[C@@H](Cc1ccc(O)cc1)C(=O)N[C@@H](CC(C)C)C(=O)N[C@@H](CCCCN)C(=O)NCC(=O)N[C@@H](C)C(=O)N[C@@H](CCC(N)=O)C(N)=O [hSPX (C4)] (H-NWTCQAMLYLKGAQ-NH2; N-terminus assumed) |  | N.M. |  |  | 0.98 |  | 0.91 |  |  |
